Columns and labels:
KB [1] = test: Cytotoxicity against human KB cells after 3 days by Resazurin Microplate Assay; format: functional, cell-based; details: 72 h
NCI-H187 [2] = test: Cytotoxicity against human NCI-H187 cells at >100 uM after 5 days by Resazurin Microplate Assay; format: functional, cell-based
NCI-H187 [3] = test: Cytotoxicity against human NCI-H187 cells after 5 days by Resazurin Microplate Assay; format: functional, cell-based; details: NCI-H187, 120 h
KB [4] = test: Cytotoxicity against human KB cells at >100 uM after 3 days by Resazurin Microplate Assay; format: functional, cell-based
Vero [5] = test: Cytotoxicity against african green monkey Vero cells by green fluorescent protein based assay; format: cell-based; details: Chlorocebus sabaeus
Vero [6] = test: Cytotoxicity against african green monkey Vero cells at >100 uM by green fluorescent protein based assay; format: cell-based, Chlorocebus sabaeus
Vero [7] = test: Selectivity ratio of IC50 for african green monkey Vero cells to IC50 for human KB cells
Vero [8] = test: Selectivity ratio of IC50 for african green monkey Vero cells to IC50 for human NCI-H187 cells
NCI-H187 [9] = test: Selectivity ratio of IC50 of ellipticine to IC50 of compound for human NCI-H187 cells; format: functional

Structure (SMILES) | IC50 (KB [1]) [µM] | IC50 (NCI-H187 [2]) | IC50 (NCI-H187 [3]) [µM] | IC50 (KB [4]) | other results
COc1cc(OC)c2c(c1)OC(c1ccccc1)CC2O (stereo unspecified) | 92.1 | Not Active | – | – | –
COc1cc(O)c2c(c1)O[C@H](c1ccccc1)[C@H](OC)[C@@H]2O (racemic) | 56.8 | – | 95.6 | – | –
COc1ccc(CCC(=O)c2c(O)cc(OC)cc2OC)cc1 | – | Not Active | – | Not Active | –
COc1cc(OC)c2c(c1)OC(c1ccccc1)CC2=O (stereo unspecified) [DIMETHYLPINOCEMBRIN] | 39.9 | – | 33.1 | – | –
COc1cc(O)c(C(=O)CCc2ccccc2)c(O)c1 | – | – | 9.7 | Not Active | –
COc1cc(O)c2c(c1)O[C@H](c1ccccc1)CC2=O [PINOSTROBIN] | – | Not Active | – | Not Active | –
Cc1c2ccncc2c(C)c2c1[nH]c1ccccc12 [ELLIPTECINE] | 1.79 | – | 2.77 | – | IC50 (Vero [5]): 2.29 µM
COc1ccc(C2C/C(=N\O)c3c(OC)cc(OC)cc3O2)cc1 (stereo unspecified) | 43.1 | – | 4.04 | – | IC50 (Vero [6]): Non-toxic
COc1cc(O)c2c(=O)cc(-c3ccccc3)oc2c1 [TECHTOCHRYSIN] | – | Not Active | – | Not Active | IC50 (Vero [6]): Non-toxic
O=C1C[C@@H](c2ccccc2)Oc2cc(O)cc(O)c21 [PINOCEMBRIN] | 99.2 | – | 95.5 | – | –
COc1cc(O)c2c(c1)OC(c1ccccc1)C/C2=N/O (stereo unspecified) | 0.26 | – | 0.014 | – | fold change (FC) (Vero [7]): 10; IC50 (Vero [5]): 2.67 µM; fold change (FC) (Vero [8]): 190; fold change (FC) (NCI-H187 [9]): 200
COc1cc(OC)c2c(c1)OC(c1ccccc1)C/C2=N\O (stereo unspecified) | – | – | 53.2 | Not Active | –
COc1ccc(C2CC(=O)c3c(OC)cc(OC)cc3O2)cc1 (racemic) | 78.8 | – | 25.1 | – | –
COc1ccc(-c2cc(=O)c3c(OC)cc(OC)cc3o2)cc1 [TRIMETHYLAPIGENIN] | – | Not Active | – | Not Active | IC50 (Vero [6]): Non-toxic
O/N=C1\CC(c2ccccc2)Oc2cc(O)cc(O)c21 (stereo unspecified) | 84.9 | – | 2.32 | – | IC50 (Vero [6]): Non-toxic
COc1cc(O)c2c(c1)O[C@H](c1ccccc1)[C@H](OC)C2=O (mixture of isomers) | 30.4 | – | 98.2 | – | –
COc1cc(O)c2c(=O)c(OC)c(-c3ccccc3)oc2c1 | – | Not Active | – | Not Active | IC50 (Vero [6]): Non-toxic
COc1ccc(C2CC(O)c3c(OC)cc(OC)cc3O2)cc1 (stereo unspecified) | – | Not Active | – | Not Active | –
COc1cc(OC)c2c(=O)cc(-c3ccccc3)oc2c1 [CHRYSIN DIMETHYL ETHER] | – | Not Active | – | Not Active | IC50 (Vero [6]): Non-toxic
COc1cc(O)c(C(=O)CCc2ccccc2)c(OC)c1 | – | Not Active | – | Not Active | –
COc1cc(O)c2c(c1)OC(c1ccccc1)C(OC)/C2=N\O (stereo unspecified) | 23.9 | – | 0.23 | – | IC50 (Vero [5]): 41.2 µM; fold change (FC) (Vero [8]): 180; fold change (FC) (NCI-H187 [9]): 12
